“And” between values parts separate entries of the source, which are not always exact repeats. Equal entries are not always repeated. Structures can show the parent of a compound that is named as a salt.
Experiments:
[1] = Binding affinity to pre-miR-21 (unknown origin) assessed as dissociation constant by fluorescence-based assay
[2] = Binding affinity to pre-miR-21 (unknown origin) assessed as dissociation constant by microarray assay
BCL1 = assay: Inhibition of cell growth in mouse BCL1 cells; assay type: functional, cell-based
Protein lin-28 homolog A = target: T1, Protein lin-28 homolog A (Homo sapiens, UniProt Q9H9Z2); assay: Inhibition of LIN28A (unknown origin) by FRET assay
T1 sequence (Q9H9Z2 whole entry): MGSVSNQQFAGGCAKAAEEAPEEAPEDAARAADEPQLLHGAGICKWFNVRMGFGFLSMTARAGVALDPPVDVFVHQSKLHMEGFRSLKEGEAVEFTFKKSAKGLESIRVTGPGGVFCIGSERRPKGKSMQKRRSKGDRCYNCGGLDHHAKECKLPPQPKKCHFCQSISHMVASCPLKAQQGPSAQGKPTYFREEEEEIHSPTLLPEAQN

[3] = Binding affinity to pre-miR-21 (unknown origin) assessed as melting temperature by differential scanning fluorimetry analysis
[4] = Inhibition of pre-miR-372 (unknown origin) by FRET assay
[5] = Inhibition of pre-miR-373 (unknown origin) by FRET assay
[6] = Binding affinity to pre-miR-373 (unknown origin) assessed as dissociation constant
[7] = Inhibition of pre-miR-373 (unknown origin) at 250 uM by FRET assay relative to control
[8] = Inhibition of pre-miR-21 (unknown origin) by FP assay
Protein argonaute-2 = Protein argonaute-2 (Homo sapiens, UniProt Q9UKV8); assay: Inhibition of AGO2 (unknown origin)
Sequence of Protein argonaute-2 (Q9UKV8 whole entry): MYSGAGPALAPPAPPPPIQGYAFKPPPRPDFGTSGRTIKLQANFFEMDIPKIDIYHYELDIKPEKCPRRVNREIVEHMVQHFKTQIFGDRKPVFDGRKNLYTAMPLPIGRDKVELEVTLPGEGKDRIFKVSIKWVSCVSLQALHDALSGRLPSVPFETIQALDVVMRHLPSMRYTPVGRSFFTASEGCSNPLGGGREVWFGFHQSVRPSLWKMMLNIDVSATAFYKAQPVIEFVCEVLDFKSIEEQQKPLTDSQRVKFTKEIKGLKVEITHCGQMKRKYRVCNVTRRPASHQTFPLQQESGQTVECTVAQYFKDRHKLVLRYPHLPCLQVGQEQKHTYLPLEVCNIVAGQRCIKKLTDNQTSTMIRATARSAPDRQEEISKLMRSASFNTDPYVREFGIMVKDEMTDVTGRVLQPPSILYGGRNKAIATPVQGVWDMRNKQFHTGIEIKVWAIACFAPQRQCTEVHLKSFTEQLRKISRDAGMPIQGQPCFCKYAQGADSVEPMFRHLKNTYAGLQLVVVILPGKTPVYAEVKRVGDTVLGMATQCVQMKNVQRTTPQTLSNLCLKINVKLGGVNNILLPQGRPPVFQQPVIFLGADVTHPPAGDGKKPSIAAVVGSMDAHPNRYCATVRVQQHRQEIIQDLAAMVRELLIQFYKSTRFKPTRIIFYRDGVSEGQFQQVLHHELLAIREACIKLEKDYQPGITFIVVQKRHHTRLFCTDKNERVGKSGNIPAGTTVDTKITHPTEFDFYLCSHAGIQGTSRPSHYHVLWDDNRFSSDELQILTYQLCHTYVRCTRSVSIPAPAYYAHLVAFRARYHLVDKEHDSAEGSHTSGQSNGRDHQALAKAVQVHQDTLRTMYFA

[9] = Binding affinity to pre-miR-21 (unknown origin) at A bulge assessed as dissociation constant by dicer assay
[10] = Inhibition of miR-27a (unknown origin) maturation at 5 uM relative to control
[11] = Inhibition of miR-122 (unknown origin) assessed as relative light unit by luciferase assay
[12] = Binding affinity to miR-96 (unknown origin) assessed as dissociation constant; set-up: species or system Homo sapiens
Huh-7 = assay: Inhibition of miR-122 in human Huh-7 cells relative to control; assay type: cell-based; conditions: dose or concentration not given here
[13] = Inhibition of miR-122 (unknown origin) by luciferase assay
[14] = Activation of miR-122 (unknown origin) assessed as relative light unit by luciferase assay; conditions: filed as activator

O=c1cc(N2CCC(N3CCCC3)CC2)c2ccccc2o1
Kd [1]: 23 µM

CCCOc1ccc(NCC(O)Cn2c3ccc(Br)cc3c3cc(Br)ccc32)cc1 (stereo unspecified)
Kd [2]: 2.2 µM

O=[N+]([O-])c1ccc2nc(-c3ccccc3[N+](=O)[O-])nc(-c3ccccc3)c2c1
EC50 (BCL1): 20 µM

c1ccc(CN(CCN(Cc2ccccn2)Cc2ccccn2)Cc2ccccn2)nc1
IC50 (Protein lin-28 homolog A): 2.5 µM

Cc1ccccc1NCC(O)Cn1c2ccc(Br)cc2c2cc(Br)ccc21 (stereo unspecified)
Tm [3]: -5.1 °C | Kd [2]: 2.3 µM

CC(=O)Nc1csc(-c2cccc(NC(=O)CCc3cn([C@H]4O[C@@H](O[C@@H]5[C@@H](O)[C@H](N)C[C@H](N)[C@H]5O[C@H]5O[C@H](CN)[C@@H](O)[C@H](O)[C@H]5N)[C@H](O)[C@@H]4O[C@H]4O[C@@H](CN)[C@@H](O)[C@H](O)[C@H]4N)nn3)c2)n1
IC50 [4]: 2.43 µM | IC50 [5]: 5.13 µM | Kd [6]: 0.014 µM | inhibition [7]: 20%

CC(=O)N(C)c1cccc(-c2ccc3nnc(C)n3n2)c1
IC50 (Protein lin-28 homolog A): 8 µM

O=[N+]([O-])c1ccc2nc(-c3ccccc3)nc(-c3ccccc3)c2c1
EC50 (BCL1): 20 µM

COc1ccccc1CCNC1CC(=O)C(c2ccc(C)cc2)C1=O (stereo unspecified)
Kd [1]: 38 µM

NC(Cc1cc(O)c(O)cc1O)C(=O)O (stereo unspecified)
IC50 [8]: 7.05 µM

O=[N+]([O-])c1ccc2nc(-c3ccccc3O)nc(-c3ccccc3)c2c1
EC50 (BCL1): 20 µM

Cc1ccc(C(=O)Nc2ccc(S(=O)(=O)O)c3cc(S(=O)(=O)O)cc(S(=O)(=O)O)c23)cc1NC(=O)c1cccc(NC(=O)Nc2cccc(C(=O)Nc3cc(C(=O)Nc4ccc(S(=O)(=O)O)c5cc(S(=O)(=O)O)cc(S(=O)(=O)O)c45)ccc3C)c2)c1 [SURAMIN]
IC50 (Protein argonaute-2): 0.69 µM

COc1cccc2c1C(=O)c1c(O)c3c(c(O)c1C2=O)C[C@@](O)(C(=O)CO)C[C@@H]3O[C@H]1C[C@H](N)[C@@H](O)[C@H](C)O1 [EPIRUBICIN]
Kd [9]: 0.024 µM

CN[C@@H]1[C@H](O[C@H]2[C@H](O[C@H]3[C@H](O)[C@@H](O)[C@H](N=C(N)N)[C@@H](O)[C@@H]3N=C(N)N)O[C@@H](C)[C@]2(O)C=O)O[C@@H](CO)[C@H](O)[C@H]1O
inhibition [10]: 25%

N=C(N)NCc1ccc(Oc2ccccc2)cc1
IC50 (Protein argonaute-2): > 1000 µM

O=C(Nc1ccc2ccccc2c1)c1ccc([N+](=O)[O-])cc1
Activity [11]: 6.2 RLU

CCOc1cccc2c1N[C@@H](c1ccc(C(=O)O)cc1)[C@H]1CC=C[C@@H]21
IC50 (Protein lin-28 homolog A): 7 µM

CCCN(CC(=O)N(CCC)CC(=O)N(CC(=O)NCCCNCCCNC(=O)c1csc(-c2csc(CCNC(=O)[C@@H](NC(=O)[C@@H](C)[C@H](O)[C@@H](C)NC(=O)[C@@H](NC(=O)c3nc([C@H](CC(N)=O)NC[C@H](N)C(N)=O)nc(N)c3C)[C@@H](O[C@@H]3O[C@@H](CO)[C@@H](O)[C@H](O)[C@@H]3O[C@H]3O[C@H](CO)[C@@H](O)[C@H](OC(N)=O)[C@@H]3O)c3c[nH]cn3)[C@@H](C)O)n2)n1)Cc1cn(CCCNC(=O)CCCOc2c(C(C)(C)C)cc(-c3nc4ccc(N5CCN(C)CC5)cc4[nH]3)cc2C(C)(C)C)nn1)C(=O)CCCOc1cccc(-c2nc3ccc(-c4nc5ccc(N6CCN(C)CC6)cc5[nH]4)cc3[nH]2)c1
Kd [12]: 0.064 µM

O=C(Nc1ccc2ccccc2c1)c1ccc(Cl)cc1Cl
inhibition (Huh-7): 48% | IC50 [13]: 3 µM | Activity [11]: 7.73 RLU

O=C(O)c1ccc2nc3c4c(O)ccc(O)c4c(=O)c(Cl)c-3oc2c1
IC50 [8]: 4.71 µM

NCCc1cc(O)c(O)cc1O [OXIDOPAMINE HYDROCHLORIDE]
IC50 (Protein argonaute-2): 1.61 µM

OC(CNc1cccc(Cl)c1)Cn1c2ccc(Br)cc2c2cc(Br)ccc21 (stereo unspecified)
Kd [2]: 1.2 µM and 0.8 µM

COc1cccc2c1C(=O)c1c(O)c3c(c(O)c1C2=O)C[C@@](O)(C(=O)CO)C[C@@H]3O[C@H]1C[C@H](N)[C@H](O)[C@H](C)O1 [DOXORUBICIN]
Kd [9]: 0.058 µM

O=S(=O)(c1ccc2c(c1)CCCN2)N1CCC[C@H]2CCCC[C@@H]21
inhibition (Huh-7): 47% | IC50 [13]: 0.6 µM | Activity [11]: 0.6 RLU

CCCCCCNS(=O)(=O)c1ccc2c(c1)CCCN2
Activity [11]: 11.9 RLU

NC[C@H]1O[C@H](O[C@H]2[C@H](O)[C@@H](O[C@H]3O[C@H](CO)[C@@H](O)[C@H](N)[C@H]3O)[C@H](N)C[C@@H]2N)[C@H](O)[C@@H](O)[C@@H]1O
inhibition [10]: 25%

CC1(C)Oc2cc(N3CCN(C(=O)OCc4ccccc4)CC3)c([N+](=O)[O-])cc2-c2c1cnn2-c1ccc(C(=O)O)cc1
IC50 (Protein lin-28 homolog A): 4.03 µM

NC[C@H]1O[C@H](O[C@H]2[C@H](O)[C@@H](O[C@H]3O[C@H](CO)[C@@H](O)[C@H](N)[C@H]3O)[C@H](N)C[C@@H]2N)[C@H](N)C[C@@H]1O
inhibition [10]: 10%

CCCCNC(=O)Nc1cccc(-c2cn(Cc3cn([C@H]4O[C@@H](O[C@@H]5[C@@H](O)[C@H](N)C[C@H](N)[C@H]5O[C@H]5O[C@H](CN)[C@@H](O)[C@H](O)[C@H]5N)[C@H](O)[C@@H]4O[C@H]4O[C@@H](CN)[C@@H](O)[C@H](O)[C@H]4N)nn3)cn2)c1
IC50 [4]: 25.6 µM | IC50 [5]: 17.3 µM | inhibition [7]: 20%

NC[C@@H]1O[C@H](O[C@H]2[C@@H](O)[C@H](O[C@@H]3[C@@H](O)[C@H](N)C[C@H](N)[C@H]3O[C@H]3O[C@H](CN)[C@@H](O)[C@H](O)[C@H]3N)O[C@@H]2CO)[C@H](N)[C@@H](O)[C@@H]1O [FRAMYCETIN]
IC50 [4]: 125 µM | IC50 [5]: 178 µM | inhibition [7]: 100% | inhibition [10]: 25%

NC[C@@H]1O[C@H](O[C@H]2[C@@H](O)[C@H](O[C@@H]3[C@@H](O)[C@H](N)C[C@H](N)[C@H]3O[C@H]3O[C@H](CN)[C@@H](O)[C@H](O)[C@H]3N)O[C@@H]2n2cc(Cn3cnc(-c4cccc(NC(=O)c5ccccc5)c4)c3)nn2)[C@H](N)[C@@H](O)[C@@H]1O
IC50 [4]: 8.3 µM | IC50 [5]: 8.96 µM | inhibition [7]: 20%

CCCCNC(=O)Nc1ccc2oc(CCc3cn([C@H]4O[C@@H](O[C@@H]5[C@@H](O)[C@H](N)C[C@H](N)[C@H]5O[C@H]5O[C@H](CN)[C@@H](O)[C@H](O)[C@H]5N)[C@H](O)[C@@H]4O[C@H]4O[C@@H](CN)[C@@H](O)[C@H](O)[C@H]4N)nn3)nc2c1
IC50 [4]: 16.3 µM | IC50 [5]: 20.8 µM | inhibition [7]: 20%

C/C(=N\NC(=O)c1ccccn1)c1c(C)[nH]n(-c2ccccc2)c1=O
Kd [1]: 109 µM

CN(C)CCN1C(=O)c2cccc3cccc(c23)C1=O
Activity [14]: 0.18 RLU

O=S(=O)(Nc1ccccc1)c1ccc2c(c1)CCCN2
Activity [11]: 9.9 RLU

CCOc1ccc(NCC(O)Cn2c3ccc(Br)cc3c3cc(Br)ccc32)cc1 (stereo unspecified)
Kd [2]: 1.2 µM

CC(=O)c1ccc(C(=O)Nc2ccc3ccccc3c2)cc1
Activity [11]: 6.7 RLU

CCCN(CC(=O)N(CCC)CC(=O)N(CC(N)=O)Cc1cn(CCCNC(=O)CCCOc2c(C(C)(C)C)cc(-c3nc4cc(N5CCN(C)CC5)ccc4[nH]3)cc2C(C)(C)C)nn1)C(=O)CCCOc1cccc(-c2nc3ccc(-c4nc5ccc(N6CCN(C)CC6)cc5[nH]4)cc3[nH]2)c1
Kd [12]: 0.2 µM

NC[C@@H]1O[C@H](O[C@H]2[C@@H](O)[C@H](O[C@@H]3[C@@H](O)[C@H](N)C[C@H](N)[C@H]3O[C@H]3O[C@H](CN)[C@@H](O)[C@H](O)[C@H]3N)O[C@@H]2n2cc(CCC(=O)NCC(=O)Nc3nc4ccccc4[nH]3)nn2)[C@H](N)[C@@H](O)[C@@H]1O
IC50 [4]: 10.3 µM | IC50 [5]: 8.57 µM | inhibition [7]: 20%

COc1ccc(NCC(O)Cn2c3ccc(Br)cc3c3cc(Br)ccc32)cc1 (stereo unspecified)
Tm [3]: -2.3 °C | Kd [2]: 0.7 µM and 0.8 µM

OC(CNc1ccc(N2CCOCC2)cc1)Cn1c2ccc(Br)cc2c2cc(Br)ccc21 (stereo unspecified)
Kd [2]: 2.1 µM
